For 17 compounds, IC50 and solubility results are on record in ChEMBL document CHEMBL1153194, “Discovery of halo-nitrobenzamides with potential application against human African trypanosomiasis” (Bioorg Med Chem Lett, 2010).

The subject of data set [1] is Plasmodium falciparum. Description: Antiplasmodial activity against Plasmodium falciparum 3D7 infected in human O+ erythrocytes after 72 hrs by GNA satin based assay. It is filed as functional, organism-based. The settings on record: 3D7, 72 h.
Data set [2] has as its system HepG2. Description: Cytotoxicity against human HepG2 cells after 72 hrs. It is filed as cell-based. The settings on record: HepG2, 72 h.
Data set [3] relates to Trypanosoma brucei brucei. Description: Antitrypanosomal activity against Trypanosoma brucei brucei after 48 hrs by luminescence assay. The format is functional, organism-based.
Data set [4] in a line: Solubility of the compound. It is filed as physicochemical.

Regarding `CCCCCCc1ccc(C(=O)Nc2ccc(Cl)c([N+](=O)[O-])c2)cc1`, the IC50 is more than 15 µM in data set [1], more than 50 µM in data set [2] and 6 µM in data set [3]. Also, the solubility in data set [4] is less than 0.1 µM.

For the compound `COc1ccc(NC(=O)c2cc([N+](=O)[O-])ccc2Cl)cc1`, the half-maximal inhibitory concentration (IC50) in data set [1] was more than 15 µM; in data set [2] it was more than 50 µM; in data set [3] it was 19.2 µM.

With `O=C(Nc1ccc(Cl)cc1)c1cc([N+](=O)[O-])ccc1Cl`, the IC50 is more than 15 µM in data set [1], more than 50 µM in data set [2] and 1.5 µM in data set [3].

Consider `CCCCCCc1ccc(NC(=O)c2cc([N+](=O)[O-])ccc2Cl)cc1`, for which the IC50 was more than 15 µM in data set [1], more than 50 µM in data set [2] and 1 µM in data set [3]. This compound also registered a solubility in data set [4] of less than 0.1 µM.

In the case of `Cc1ccc(NC(=O)c2cc([N+](=O)[O-])ccc2Cl)cc1`, the IC50 in data set [1] is more than 15 µM; in data set [2], more than 50 µM; in data set [3], 7.7 µM.

Regarding `CCCCCCc1ccc(NC(=O)c2c(Cl)cccc2[N+](=O)[O-])cc1`, the IC50 in data set [1] is more than 15 µM; in data set [2], more than 50 µM; in data set [3] it was 29.8 µM. In data set [4], this compound returned a solubility of less than 0.1 µM.

For the compound `CCCCCCc1ccc(NC(=O)c2ccc(Cl)cc2[N+](=O)[O-])cc1`, the IC50 in data set [1] was more than 15 µM; in data set [2], more than 50 µM; in data set [3] it was 20.8 µM. Besides, the solubility in data set [4] was less than 0.1 µM.

As to `CCCCCCc1ccc(NC(=O)c2ccc(Cl)c([N+](=O)[O-])c2)cc1`, the half-maximal inhibitory concentration (IC50) in data set [1] was more than 15 µM; in data set [2], more than 50 µM; in data set [3], 11.9 µM. The compound further had a solubility in data set [4] of less than 0.1 µM.

On to `CCCCCCc1ccc(NC(=O)c2ccc(F)c([N+](=O)[O-])c2)cc1`, for which the IC50 was more than 15 µM in data set [1], 10.3 µM in data set [2] and 24 µM in data set [3]. The compound also registered a solubility in data set [4] of less than 0.1 µM.

On to `CCCCCCc1ccc(C(=O)Nc2cc([N+](=O)[O-])ccc2Cl)cc1`, for which the figures for the half-inhibitory concentration (IC50) in data set [1], in data set [2] and in data set [3] were more than 15 µM, more than 50 µM and more than 50 µM, respectively. The same compound gave a solubility in data set [4] of less than 0.1 µM.

Turning to `CCCCCCc1ccc(C(=O)Oc2ccc(Cl)c([N+](=O)[O-])c2)cc1`, the values for the IC50 in data set [1], in data set [2] and in data set [3] were more than 15 µM, more than 50 µM and 24 µM, respectively. Further, the solubility in data set [4] was less than 0.1 µM.

For `O=C(NCc1ccccc1)c1cc([N+](=O)[O-])ccc1Cl`, the IC50 was more than 15 µM in data set [1], more than 50 µM in data set [2] and more than 50 µM in data set [3].

For `CCCCCCc1ccc(NC(=O)c2cc([N+](=O)[O-])ccc2F)cc1`, the IC50 in data set [1] was determined as 7.3 µM; in data set [2], 2.5 µM; in data set [3] it was 1.5 µM. In data set [4], this compound came in with a solubility of less than 0.1 µM.

Consider `O=C(NCC1CCCCC1)c1cc([N+](=O)[O-])ccc1Cl`, for which the IC50 in data set [1] is more than 15 µM; in data set [2], more than 50 µM; in data set [3] it was 27 µM.

Take `CCCCCCc1ccc(NC(=O)c2ccc([N+](=O)[O-])cc2Cl)cc1`: the IC50 in data set [1] is more than 15 µM; in data set [2], more than 50 µM; in data set [3], 19 µM. This compound also displayed a solubility in data set [4] of less than 0.1 µM.

As to `COc1ccc(N2CCN(C(=O)c3cc([N+](=O)[O-])ccc3Cl)CC2)cc1`, the IC50 was more than 15 µM in data set [1], more than 50 µM in data set [2] and 24.5 µM in data set [3].

For `CCCCCCc1ccc(NC(=O)c2cccc([N+](=O)[O-])c2Cl)cc1`, the IC50 in data set [1] was more than 15 µM; in data set [2], more than 50 µM; in data set [3] it was more than 50 µM. In data set [4], this compound had a solubility of less than 0.1 µM.

The term IC50 denotes the midpoint of a concentration-inhibition curve. Low values mean greater potency in that assay, high ones weaker potency in that assay. The term solubility denotes how much of the substance goes into solution per volume. Read a low solubility as little dissolved substance.
